This is an account of results in patent publication US6699983B1, “Integrin-linked kinase and its uses” (Sunnybrook Health Sciences Centre, priority 1995, dated 2004).

The subject of experiment [1] is ILK. The experiment in a line: ILK activation by insulin in IEC-18 cells (immune complex kinase assay, MBP substrate). Type of experiment: cell-based, rat. To be noted: quiescent, serum-starved IEC-18 cells. On the procedure:
Assessment of ILK activation by insulin on IEC-18 cells. IEC 18 cells are rat colon epithelial cells that are cultured routinely in α-MEM medium supplemented with insulin (10 mg/liter), glucose 3.6 g/liter, and 5% FCS. When IEC 18 cells are grown to 80% confluence, they are serum starved for 18 hours prior to activation by insulin. Before addition of insulin, media are removed and 4 ml of α-MEM+insulin 6 μM is added to the 100 mm dishes. P13 kinase inhibitors such as LY294002 at 50 μM or wortmannin at 200 nM are added optionally to block P13 kinase dependent ILK activation. At the designated times, dishes are washed 3× with ice cold PBS and cells are lysed in 500 μl lysis buffer: 150 mM NaCI, 1% NP-40, 0.5% sodium deoxycholate, 50 mM Hepes pH 7.5, 10 μg/ml leupeptin, 1 mM PMSF, 2.5 μl aprotinin/mi lysis buffer, NaF 5 mM, Sodium vanadate 1 mM. After assessment of protein concentration by Bradford assay, 500 μl samples containing 200 μg of proteins are incubated for 2 hrs at 4° C. with 20 μl of Protein A-Sepharose to preadsorb the non specific kinases. The lysate is then incubated overnight with 2 μg of rabbit anti ILK antiserum at 4° C. under rotation.
The immunocomplexes are then captured by incubating the lysate with 15 μl of Protein A Sepharose for 2 hrs at 4° C. […] Phosphorylation level of MBP is assessed by phosphorimager analysis or exposure to an X ray film.

Experiment [2] concerns the target T1, ILK (Homo sapiens, UniProt Q13418).
T1 construct: GST
T1 sequence (Q13418 1-452): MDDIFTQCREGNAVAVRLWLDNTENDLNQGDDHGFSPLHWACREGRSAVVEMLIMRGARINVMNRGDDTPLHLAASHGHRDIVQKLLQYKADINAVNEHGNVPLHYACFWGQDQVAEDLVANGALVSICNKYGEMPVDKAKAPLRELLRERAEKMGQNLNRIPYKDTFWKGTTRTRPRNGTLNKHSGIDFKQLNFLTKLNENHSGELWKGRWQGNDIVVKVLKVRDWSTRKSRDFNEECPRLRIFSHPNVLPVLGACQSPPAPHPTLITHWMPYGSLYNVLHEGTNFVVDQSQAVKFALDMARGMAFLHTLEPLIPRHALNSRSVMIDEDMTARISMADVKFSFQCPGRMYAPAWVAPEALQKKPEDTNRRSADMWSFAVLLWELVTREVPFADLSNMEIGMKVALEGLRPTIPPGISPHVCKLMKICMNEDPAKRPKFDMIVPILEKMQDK
Nature of the experiment: Regulation of ILK kinase by phosphoinositides in vitro (ILK5-GST, MBP substrate). Type of experiment: biochemical. Particulars: lipid vesicles with phosphatidylserine and phosphatidylcholine, 30° C. On the procedure:
Assessment of regulation of ILK kinase by phosphoinositides. Ptdlns(3)P, Ptdins(3,4)P2 and Ptdlns(3,4,5)P3 were dried under nitrogen and resuspended at 0.1 mM in Hepes 10 mM, pH 7. 0 with phosphatidylserineand phosphatidylcholine, both at 1 mM. The lipid suspensions were vortexed and further sonicated for 20 min in order to generate unilamellar vesicles. 11 μl of ILK5-GST in kinase buffer were combined to 4 μl of lipids and 25 μl of kinase reaction solution containing 2.5 μl of MBP and 5 μCi of γ^32 P-ATP. The reaction proceeded for […] at 30° C. The reaction was stopped by adding an equal volume of 2× sample buffer. The samples were run on a 12% non reducing SDS-PAGE gel.

Turning to insulin, the “stimulation of ILK activity” value with ILK [1] was “rapidly stimulated”.
Consider “phosphatidylinositol (3,4,5) trisphosphate [Ptdlns(3,4,5)P3]”, for which the “ILK activity in vitro in the presence of phosphoinositide” value at ILK [2] was “stimulated”.
For “phosphatidylinositol(3) monophosphate [Ptdlns(3)P]”, the “ILK activity in vitro in the presence of phosphoinositide” value at ILK [2] is “not”.
Still for that read-out and setting: the entry for “phosphatidylinositol(3,4) bisphosphate [Ptdlns(3,4)P2]” is “not”.
